Assay results: PubChem BioAssay AID1963866 (Molecular Pharmacology Branch, DTP, NCI, 2024)
pIC50: −log10 of the molar value.

Tested on: PDC KRAS tumor spheroids with HUVEC/MSC, viability
Experiment: Anticancer human tumor 349418-098-R-PDC patient-derived lung adenocarcinoma cell line growth inhibition [KRAS2]
Conditions: for pIC50: curve of first compound; for viability, T/C: stronger effect = lower value
Outline: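 Combination screen of spheroid viability in tumor-cell co-cultures with endothelial (HUVEC) and mesenchymal stem cell stroma. Each agent was tested in half-log dilutions, topping at clinical Cmax or at 10 microM without a known Cmax.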

[1] = second compound 0.1 µM, first compound 0.0316 µM
[2] = second compound 0.1 µM, first compound 0.1 µM
[3] = second compound 0.1 µM, first compound 0.316 µM
[4] = second compound 0.1 µM, first compound 1 µM
[5] = second compound 0.1 µM, first compound 3.16 µM
[6] = second compound 0.316 µM, first compound 0.0316 µM
[7] = second compound 0.316 µM, first compound 0.1 µM
[8] = second compound 0.316 µM, first compound 0.316 µM
[9] = second compound 0.316 µM, first compound 1 µM
[10] = second compound 0.316 µM, first compound 3.16 µM
[11] = second compound 1 µM, first compound 0.0316 µM
[12] = second compound 1 µM, first compound 0.1 µM
[13] = second compound 1 µM, first compound 0.316 µM
[14] = second compound 1 µM, first compound 1 µM
[15] = second compound 1 µM, first compound 3.16 µM
[16] = second compound 3.16 µM, first compound 0.0316 µM
[17] = second compound 3.16 µM, first compound 0.1 µM
[18] = second compound 3.16 µM, first compound 0.316 µM
[19] = second compound 3.16 µM, first compound 1 µM
[20] = second compound 3.16 µM, first compound 3.16 µM
[21] = second compound 10 µM, first compound 0.0316 µM
[22] = second compound 10 µM, first compound 0.1 µM
[23] = second compound 10 µM, first compound 0.316 µM
[24] = second compound 10 µM, first compound 1 µM
[25] = second compound 10 µM, first compound 3.16 µM
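Also: spheroids exposed to compounds for seven days before readout.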

Cn1nccc1Nc1nccc(-c2cc3c(s2)C(C)(C)N(CCN2CCOCC2)C3=O)n1 + CC1OCC2(CCN(c3cnc(Sc4ccnc(N)c4Cl)c(N)n3)CC2)C1N
pIC50 (second compound 0.1 µM): 7.27
pIC50 (second compound 0.316 µM): 7.35
pIC50 (second compound 1 µM): 7.49
pIC50 (second compound 3.16 µM): 7.44
pIC50 (second compound 10 µM): > 7.50
viability, T/C [1]: 68.8%
viability, T/C [2]: 27%
viability, T/C [3]: 17.7%
viability, T/C [4]: 8.51%
viability, T/C [5]: 5.52%
viability, T/C (second compound 0.1 µM, first compound 10 µM): 4.04%
viability, T/C [6]: 61.4%
viability, T/C [7]: 23.7%
viability, T/C [8]: 7.24%
viability, T/C [9]: 6.49%
viability, T/C [10]: 4.43%
viability, T/C (second compound 0.316 µM, first compound 10 µM): 4.11%
viability, T/C [11]: 51.1%
viability, T/C [12]: 18.4%
viability, T/C [13]: 8.88%
viability, T/C [14]: 4.35%
viability, T/C [15]: 4.16%
viability, T/C (second compound 1 µM, first compound 10 µM): 4.13%
viability, T/C [16]: 54.6%
viability, T/C [17]: 19.7%
viability, T/C [18]: 7.87%
viability, T/C [19]: 3.17%
viability, T/C [20]: 2.99%
viability, T/C (second compound 3.16 µM, first compound 10 µM): 3.09%
viability, T/C [21]: 47.9%
viability, T/C [22]: 18.8%
viability, T/C [23]: 6.03%
viability, T/C [24]: 2.89%
viability, T/C [25]: 2.98%
viability, T/C (second compound 10 µM, first compound 10 µM): 2.7%

CC(=O)OC12COC1CC(O)C1(C)C(=O)C(O)C3=C(C)C(OC(=O)C(O)C(NC(=O)OC(C)(C)C)c4ccccc4)CC(O)(C(OC(=O)c4ccccc4)C21)C3(C)C (stereo not given) + CNCc1ccccc1-c1csc(C(C)Nc2nc(C)nc3cc(OC)c(OC)cc23)c1
pIC50 (second compound 0.1 µM): > 8.00
pIC50 (second compound 0.316 µM): > 8.00
pIC50 (second compound 1 µM): > 8.00
pIC50 (second compound 3.16 µM): > 8.00
pIC50 (second compound 10 µM): > 8.00
viability, T/C (second compound 0.1 µM, first compound 0.01 µM): 13.4%
viability, T/C [1]: 14.8%
viability, T/C [2]: 18.9%
viability, T/C [3]: 17.3%
viability, T/C [4]: 22%
viability, T/C [5]: 24.9%
viability, T/C (second compound 0.316 µM, first compound 0.01 µM): 10.7%
viability, T/C [6]: 13.9%
viability, T/C [7]: 15.6%
viability, T/C [8]: 17.8%
viability, T/C [9]: 21%
viability, T/C [10]: 21.6%
viability, T/C (second compound 1 µM, first compound 0.01 µM): 11%
viability, T/C [11]: 15.3%
viability, T/C [12]: 15%
viability, T/C [13]: 21.2%
viability, T/C [14]: 23.8%
viability, T/C [15]: 24.2%
viability, T/C (second compound 3.16 µM, first compound 0.01 µM): 8.03%
viability, T/C [16]: 0.13%
viability, T/C [17]: 0.09%
viability, T/C [18]: 0.15%
viability, T/C [19]: 0.1%
viability, T/C [20]: 23.6%
viability, T/C (second compound 10 µM, first compound 0.01 µM): 0.19%
viability, T/C [21]: 0.12%
viability, T/C [22]: 0.12%
viability, T/C [23]: 0.17%
viability, T/C [24]: 22.6%
viability, T/C [25]: 0.21%
